Assay results as given in patent US20170348375A1, “DISLODGEMENT AND RELEASE OF HSC FROM THE BONE MARROW STEM CELL NICHE USING ALPHA9 INTEGRIN ANTAGONISTS” (COMMONWEALTH SCIENTIFIC AND INDUSTRIAL RESEARCH ORGANISATION, priority 2014, published 2017).
Entries after “also recorded” stand apart in the source; their conditions may differ.

What was measured:
[1] = target: T1, human integrin α4β1 (overexpressed in LN18 α4β1 cells; pMSCV-hITGA4-IRES-hITGB1) (Homo sapiens, UniProt P05556+P13612); assay: Competitive inhibition of R-BC154 (50 nM) binding to LN18 α4β1 cells by BOP, flow cytometry
T1 construct: expressed in transfected cells; host or cells: LN18 human glioblastoma cells (ATCC CRL-2610), retrovirally transduced with pMSCV-hITGA4-IRES-hITGB1
Description: (§1) Stable LN18 cells over-expressing human integrin α4β1 and α9β1 were generated via retroviral transduction of human glioblastoma LN18 cell lines. Silencing of background α4 expression in parental and α9β1 transduced LN18 cells was achieved by retroviral vector delivery of α4 shRNA.
(§2) (a) Chemical structure of α9β1/α4β1 integrin antagonist BOP (2). […] Data is mean±SEM (n=3) (d) Analysis of the WBC, (e) LSK and (f) LSKSLAM content in the peripheral blood of mice treated with BOP (10 mg/kg) over 90 mins. Data is mean±SEM (n=5 per time point).
(§3) Flow cytometric analysis was performed using an LSR II (BD Biosciences) as previously described in J. Grassinger, et al Blood, 2009, 114, 49-59. […] For BM and PB analysis, up to 5×10^6 cells were analysed at a rate of 10-20 k cell events/sec. For analysis of PB LSKSLAM, up to 1×10^6 events were saved. Cell sorting was performed on a Cytopeia Influx (BD) as previously described in J. Grassinger, et al.
(§4) Stable LN18 cells ((ATCC number: CRL-2610) over-expressing integrin α4β1 (LN18 α4β1) or α9β1 (LN18 α9β1)) were generated by retroviral transduction using the pMSCV-hITGA4-IRES-hITGB1 and pMSCV-hITGA9-IRES-hITGB1 vectors as previously described in J Grassinger, et al Blood, 2009, 114, 49-59 and were maintained in DMEM supplemented with 2 mM L-glutamate in 10% FBS. […]

[2] = target: T2, human integrin α9β1 (overexpressed in LN18 α9β1 cells, α4-silenced; pMSCV-hITGA9-IRES-hITGB1) (Homo sapiens, UniProt P05556+Q13797); assay: Competitive inhibition of R-BC154 (50 nM) binding to LN18 α9β1 cells by BOP, flow cytometry
T2 construct: expressed in transfected cells; host or cells: LN18 human glioblastoma cells (ATCC CRL-2610), retrovirally transduced with pMSCV-hITGA9-IRES-hITGB1, α4 silenced with pSM2c-shITGA4
Description: as §1, §2, §3, §4

[3] = target: T3, α4β1 integrin (Homo sapiens, UniProt P05556+P13612); assay: Competitive inhibition of R-BC154 binding to α4β1 LN18 cells; settings: 1 mM Ca2+/Mg2+
T3 construct: expressed in transfected cells; host or cells: human glioblastoma LN18 (ATCC CRL-2610), retrovirally transduced
Description: (§5) Cells were incubated for 90 min at 37° C., washed with PBS, pelleted by centrifugation and resuspended in PBS (200 μl) for flow cytometric analysis. % Max mean fluorescence intensity (MFI) was plotted against the log concentration of BOP and the data fitted to a ligand binding-sigmoidal dose-response curve and IC50 values obtained from graphs.

[4] = target: T4, α9β1 integrin (Homo sapiens, UniProt P05556+Q13797); assay: Competitive inhibition of R-BC154 binding to α9β1 LN18 cells; settings: 1 mM Ca2+/Mg2+
T4 construct: expressed in transfected cells; host or cells: human glioblastoma LN18 (ATCC CRL-2610), retrovirally transduced; α4 silenced with pSM2c-shITGA4
Description: as §5

[5] = tested on: α9β1 and α4β1 integrin binding on HSC and progenitors (LSK and LSKSLAM); assay: Competitive displacement of R-BC154 binding to LSK and LSKSLAM cells; assay type: cell-based, mouse; settings: 500 nM, 1 mM Ca2+/Mg2+
Description: as §5

[6] = tested on: WBC, LSK and LSKSLAM in PB; assay: Mobilization of HSC and progenitors into peripheral blood; assay type: in vivo, mouse
Description: For mobilization experiments, all mice received subcutaneous injections at 100 μl/10 gm body weight and PB was harvested by throat bleed using EDTA coated syringes.

[7] = tested on: α4β1 and α9β1 integrins binding to VCAM-1 and Opn; settings: in vitro; cited from earlier work
[8] = target: α9β1 (Homo sapiens, UniProt P05556+Q13797); settings: Pepinsky et al (2002) FIG. 4b; cited from earlier work
Chain of α9β1 (Q13797 30-1035): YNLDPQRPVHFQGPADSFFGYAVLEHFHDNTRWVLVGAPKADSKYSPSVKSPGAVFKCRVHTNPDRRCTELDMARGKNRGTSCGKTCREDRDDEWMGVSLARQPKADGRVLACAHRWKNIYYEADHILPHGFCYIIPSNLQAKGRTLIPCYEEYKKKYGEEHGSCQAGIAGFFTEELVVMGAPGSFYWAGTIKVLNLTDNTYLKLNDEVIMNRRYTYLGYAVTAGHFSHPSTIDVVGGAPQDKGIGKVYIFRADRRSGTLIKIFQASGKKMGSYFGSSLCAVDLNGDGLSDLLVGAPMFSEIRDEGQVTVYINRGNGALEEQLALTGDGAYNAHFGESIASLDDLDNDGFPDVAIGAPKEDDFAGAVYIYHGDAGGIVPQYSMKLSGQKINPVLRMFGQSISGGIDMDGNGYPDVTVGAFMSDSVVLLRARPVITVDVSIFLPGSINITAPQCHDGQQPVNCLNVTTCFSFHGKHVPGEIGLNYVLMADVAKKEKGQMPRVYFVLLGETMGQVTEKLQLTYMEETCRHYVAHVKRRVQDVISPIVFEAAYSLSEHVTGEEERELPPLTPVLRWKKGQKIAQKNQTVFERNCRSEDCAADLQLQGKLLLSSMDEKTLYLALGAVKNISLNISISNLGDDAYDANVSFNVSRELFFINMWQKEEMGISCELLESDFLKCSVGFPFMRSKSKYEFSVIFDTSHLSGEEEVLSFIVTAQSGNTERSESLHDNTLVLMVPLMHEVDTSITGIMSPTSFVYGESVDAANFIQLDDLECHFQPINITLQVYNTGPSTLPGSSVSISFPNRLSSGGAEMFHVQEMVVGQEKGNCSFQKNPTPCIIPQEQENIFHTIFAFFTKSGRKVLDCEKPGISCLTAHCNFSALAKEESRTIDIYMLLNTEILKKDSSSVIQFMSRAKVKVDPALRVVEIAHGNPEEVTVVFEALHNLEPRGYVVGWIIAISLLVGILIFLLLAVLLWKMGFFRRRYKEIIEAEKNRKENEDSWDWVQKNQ
Chain of α9β1 (P05556 21-798): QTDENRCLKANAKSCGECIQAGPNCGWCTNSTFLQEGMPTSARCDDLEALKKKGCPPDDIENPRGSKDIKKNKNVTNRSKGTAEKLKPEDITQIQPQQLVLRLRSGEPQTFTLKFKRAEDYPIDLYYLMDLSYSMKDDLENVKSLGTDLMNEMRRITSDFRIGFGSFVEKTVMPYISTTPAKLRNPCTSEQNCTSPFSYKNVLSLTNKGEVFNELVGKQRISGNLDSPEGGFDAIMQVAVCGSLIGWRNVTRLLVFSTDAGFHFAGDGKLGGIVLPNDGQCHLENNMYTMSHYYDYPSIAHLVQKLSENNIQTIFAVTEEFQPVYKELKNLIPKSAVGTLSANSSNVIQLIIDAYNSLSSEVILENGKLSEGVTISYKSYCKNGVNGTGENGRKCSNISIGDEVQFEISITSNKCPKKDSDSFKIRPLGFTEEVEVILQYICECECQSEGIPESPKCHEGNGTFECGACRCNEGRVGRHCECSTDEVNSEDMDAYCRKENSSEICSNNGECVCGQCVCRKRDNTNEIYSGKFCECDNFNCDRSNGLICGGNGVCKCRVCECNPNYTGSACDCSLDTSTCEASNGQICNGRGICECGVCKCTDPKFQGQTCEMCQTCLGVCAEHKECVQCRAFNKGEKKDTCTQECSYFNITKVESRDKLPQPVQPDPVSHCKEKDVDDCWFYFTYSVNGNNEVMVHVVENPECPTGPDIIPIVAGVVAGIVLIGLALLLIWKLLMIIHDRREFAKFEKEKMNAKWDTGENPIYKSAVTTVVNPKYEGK

T2 sequence (Q13797 30-1035): as the sequence (Q13797 30-1035) above
T2 sequence (P05556 21-798): as the sequence (P05556 21-798) above
T4 sequence (Q13797 30-1035): as the sequence (Q13797 30-1035) above
T4 sequence (P05556 21-798): as the sequence (P05556 21-798) above
T1 sequence (P13612 34-1032): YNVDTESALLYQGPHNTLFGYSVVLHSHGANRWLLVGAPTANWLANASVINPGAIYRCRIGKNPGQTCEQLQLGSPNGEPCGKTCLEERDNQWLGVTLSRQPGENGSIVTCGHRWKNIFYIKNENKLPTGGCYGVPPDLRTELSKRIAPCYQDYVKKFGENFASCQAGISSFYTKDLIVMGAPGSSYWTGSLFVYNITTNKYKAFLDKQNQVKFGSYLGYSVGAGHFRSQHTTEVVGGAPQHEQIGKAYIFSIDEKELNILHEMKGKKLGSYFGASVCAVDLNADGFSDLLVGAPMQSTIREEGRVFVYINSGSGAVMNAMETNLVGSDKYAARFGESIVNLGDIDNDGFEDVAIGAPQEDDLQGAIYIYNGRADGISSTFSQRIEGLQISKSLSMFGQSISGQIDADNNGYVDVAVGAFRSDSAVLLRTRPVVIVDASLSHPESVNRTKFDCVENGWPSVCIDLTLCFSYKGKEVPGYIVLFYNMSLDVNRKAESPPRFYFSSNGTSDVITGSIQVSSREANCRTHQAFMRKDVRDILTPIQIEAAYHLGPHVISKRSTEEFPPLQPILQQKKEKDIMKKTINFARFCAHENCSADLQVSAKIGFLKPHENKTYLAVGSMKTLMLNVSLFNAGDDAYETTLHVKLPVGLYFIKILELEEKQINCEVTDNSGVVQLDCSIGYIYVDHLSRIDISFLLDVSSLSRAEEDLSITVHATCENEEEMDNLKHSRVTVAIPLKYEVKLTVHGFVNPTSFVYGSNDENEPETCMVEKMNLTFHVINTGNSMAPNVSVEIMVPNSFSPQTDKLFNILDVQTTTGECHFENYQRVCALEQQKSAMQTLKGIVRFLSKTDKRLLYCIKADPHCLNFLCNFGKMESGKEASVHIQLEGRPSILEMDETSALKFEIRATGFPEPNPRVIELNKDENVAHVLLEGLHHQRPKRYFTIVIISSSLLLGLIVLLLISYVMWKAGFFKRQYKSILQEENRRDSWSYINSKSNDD
T1 sequence (P05556 21-798): as the sequence (P05556 21-798) above
T3 sequence (P13612 34-1032): as the sequence (P13612 34-1032) above
T3 sequence (P05556 21-798): as the sequence (P05556 21-798) above

IC50 [1]	IC50 [2]	inhibition of α4β1 integrin (competitive inhibition of R-BC154 binding) [3]	inhibition of α9β1 integrin (competitive inhibition of R-BC154 binding) [4]	Structure (SMILES)	inhibition of α9β1 and α4β1 integrin binding on HSC and progenitors (displacement of R-BC154) [5]	PB WBC, LSK and LSKSLAM compared to the saline control ([6]; 10 mg/kg, C57BL/6 mice, up to 90 mins)	mobilization of HSC with long-term multi-lineage engraftment potential ([6]; summary statement)	inhibition of binding of α4β1 and α9β1 integrins to VCAM-1 and Opn [7]	off-rates for α9β1 compared to α4β1 [8]
2.39 nM	2.62 nM			O=C(O)[C@H](Cc1ccc(OC(=O)N2CCCC2)cc1)NC(=O)[C@@H]1CCCN1S(=O)(=O)c1ccccc1 [BOP (2), N-(Benzenesulfonyl)-L-prolyl-L-O-(1-pyrrolidinylcarbonyl)tyrosine]					
		potent inhibitor	potent inhibitor	O=C(O)[C@H](Cc1ccc(OC(=O)N2CCCC2)cc1)NC(=O)[C@@H]1CCCN1S(=O)(=O)c1ccccc1 [BOP, N-(Benzenesulfonyl)-L-prolyl-L-O-(1-pyrrolidinylcarbonyl)tyrosine]	effectively inhibited	significant increases	effectively and rapidly mobilized	nanomolar inhibitory potencies; also recorded: can inhibit	significantly reduced off-rates
